Experimental findings from US9296697B2, “Hetaryl-substituted guanidine compounds and use thereof as binding partners for 5-HT5-receptors” (Abbott Laboratories, priority 2005, dated 2016) are described below.

SMILES strings stand for the structures. pKi: −log10 of the molar value.

T1 sequence (P47898 whole entry): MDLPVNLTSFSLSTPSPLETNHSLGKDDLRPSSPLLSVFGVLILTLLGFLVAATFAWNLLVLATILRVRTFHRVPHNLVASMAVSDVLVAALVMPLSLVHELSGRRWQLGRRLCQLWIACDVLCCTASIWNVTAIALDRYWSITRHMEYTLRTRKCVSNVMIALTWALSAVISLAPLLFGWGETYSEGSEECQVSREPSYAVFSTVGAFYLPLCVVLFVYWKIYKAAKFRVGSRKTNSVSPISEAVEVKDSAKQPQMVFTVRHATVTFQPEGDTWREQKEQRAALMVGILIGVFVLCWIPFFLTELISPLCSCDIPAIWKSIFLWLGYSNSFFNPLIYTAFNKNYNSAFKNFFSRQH

The test concerns the target T1, h5-HT5A receptor (Homo sapiens, UniProt P47898).
T1 construct: expressed in transfected cells; membranes used
Nature of the test: h5-HT5A [3H]5-CT binding assay. The conditions noted are these: affinity for 5-HT5A; membranes of HEK293 cells expressing the h5-HT5A receptor gene, 2.5 nM [3H]5-CT. The method, then: h5-HT5A [^3H]5-CT Binding Assay
Membranes of HEK293 cells which permanently express the h5-HT5A receptor gene were incubated in 100 mM tris-HCl buffer (pH 7.7) containing 1 mM EDTA, in the presence of 2.5 nM [^3H]5-CT (total volume 600 μL). The total binding is defined as the binding that is observed when the membranes are incubated in the presence of only the radioligand. The inhibition induced by the compound is determined by incubation of cell membranes in the presence of the radioligand and various concentrations of the compound of interest. Nonspecific binding is defined as the [^3H]5-CT binding obtained by incubation of the membranes, the same as for the total binding, but in the presence of 10 μM methiothepine. Following incubation for 75 min at 30° C., the membrane suspension was filtered through a GF/B-Filter coated with 0.03% PEI, using a Skatron® harvesting system. The residual radioactivity in the filter was quantified by liquid scintillation counting.
Various concentrations of the test substances were used in both assays, and the Ki or IC50 values were determined.
As usually defined, the pKi is −log10 of the Ki, conventionally taken in molar units. Read a high pKi as a low Ki. On to `COc1ccccc1CNC(=N)Nc1cc(-c2ccc(F)cc2)ccn1` [Example 59, N-[4-(4-Fluorophenyl)pyridin-2-yl]-N′-(2-methoxybenzyl)guanidine acetate], for which the pKi was more than 6.52.

`COc1ccccc1CNC(=N)Nc1ncccc1-c1ccc(F)cc1` [Example 63, N-[3-(4-Fluorophenyl)pyridin-2-yl]-N′-(2-methoxybenzyl)guanidine acetate] had a negative logarithm of the Ki (pKi) of more than 5.00.

Compound `COc1cccc(OC)c1CNC(=N)Nc1ccc(-c2ccc(F)cc2)cn1` [Example 84, N-(2,6-Dimethoxybenzyl)-N′-[5-(4-fluorophenyl)pyridin-2-yl]guanidine acetate] showed a pKi of more than 7.00.

Consider `COc1ccccc1CNC(=N)Nc1cccc(-c2ccccc2)n1` [Example 51, N-(2-Methoxybenzyl)-N′-(6-phenylpyridin-2-yl)guanidine acetate], for which the pKi is more than 7.00.

Compound `N=C(NCc1ccccc1OC(F)(F)F)Nc1cccc(Br)n1` [Example 73, N-(6-Bromopyridin-2-yl)-N′-[2-(trifluoromethoxy)benzyl]guanidine] gave a pKi of more than 7.00.

Take `COc1cccc(OC)c1CNC(=N)Nc1ccc(C)cn1` [Example 7, N-(2,6-dimethoxybenzyl)-N′-(5-methylpyridin-2-yl)guanidine]: the pKi is more than 7.00.
